Results on 43 sequences are retold here after publication PMC10977697 (PLOS ONE, 2024).

The subject of one assay is CD28-Fc. The experiment in a line: Spot phage ELISA, CD28-Fc. The format is binding. As to conditions: for ELISA: spot phage ELISA signal of phage-displayed DCP clone on CD28-Fc; for S/N: spot phage ELISA signal-to-noise on CD28-Fc.
A further assay has as its system PCSK9ΔCRD (PCSK9dCRD). The format is binding, human. As to conditions: for S/N: ratio of signal for target protein over BSA background; for ELISA: spot phage ELISA signal, DCP displayed on M13 p8. For orientation: In an ELISA, binding on a coated surface is turned into a signal by an enzyme label.
In a further assay the target is T1, Her3-Fc (Homo sapiens, UniProt P21860).
T1 construct: purchased R&D 348-RB
T1 sequence (P21860 20-643 limits assumed): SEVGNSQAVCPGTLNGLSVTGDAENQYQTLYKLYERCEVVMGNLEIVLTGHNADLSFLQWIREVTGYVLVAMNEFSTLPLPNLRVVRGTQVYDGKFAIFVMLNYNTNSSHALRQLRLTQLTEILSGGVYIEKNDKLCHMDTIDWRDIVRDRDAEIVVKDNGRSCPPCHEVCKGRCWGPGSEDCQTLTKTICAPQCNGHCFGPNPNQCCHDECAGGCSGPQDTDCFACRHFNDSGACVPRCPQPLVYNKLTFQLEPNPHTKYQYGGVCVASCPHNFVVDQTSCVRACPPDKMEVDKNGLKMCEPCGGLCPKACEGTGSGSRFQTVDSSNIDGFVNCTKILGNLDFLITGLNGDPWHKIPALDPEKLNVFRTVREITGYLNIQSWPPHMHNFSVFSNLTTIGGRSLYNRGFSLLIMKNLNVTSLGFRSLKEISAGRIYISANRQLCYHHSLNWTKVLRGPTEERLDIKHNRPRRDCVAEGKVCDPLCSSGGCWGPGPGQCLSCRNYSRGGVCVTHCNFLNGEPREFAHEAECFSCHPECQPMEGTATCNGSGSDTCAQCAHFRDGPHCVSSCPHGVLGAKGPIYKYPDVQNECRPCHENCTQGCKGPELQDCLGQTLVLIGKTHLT
The experiment in a line: Spot phage ELISA, Her3-Fc. The format is binding. The settings on record: for S/N: ratio of signal for target protein over BSA background; for ELISA: spot phage ELISA signal, DCP displayed on M13 p8.

The next assay deals with Notch2NRR. Kind of assay: Spot phage ELISA, Notch2NRR. The settings on record: for S/N: spot phage ELISA on Notch2NRR, signal-to-noise ratio of phage-displayed DCP clone; for ELISA: spot phage ELISA signal of phage-displayed DCP clone on Notch2NRR. Format: binding, human.

Where no end group is shown, it is not given here.

Turning to “GCIWGWAACKQDSDCLAGCVCQIWGRCG (disulfide (positions not given here)) [CD28-Fc EET I-II 3]”, in the assay on CD28-Fc, the ELISA is recorded as 1.58 and the S/N turned out to be 10.7.

In the assay with CD28-Fc, “GCYQKRVQCKQDSDCLAGCVCGWEAQCG (disulfide (positions not given here)) [CD28-Fc EET I-II 10]” displayed an ELISA of 1.41 and a S/N of 15.0.

For “GCYWKRQFKCKQDSYCLPGCVCGWEMSCG (disulfide (positions not given here)) [CD28-Fc EET I-II 16]”, in the assay with CD28-Fc, the ELISA came to 1.80 and the S/N is listed as 8.4.

Take “GCYLKRRHCKQDSDCLAGCVCGWEHTCG (disulfide (positions not given here)) [CD28-Fc EET I-II 9]”: in the assay with CD28-Fc, the ELISA worked out at 1.52 and the S/N was 23.4.

In the assay with CD28-Fc, “GCMEHWEYCKQDSDCLAGCVCVIWGRCG (disulfide (positions not given here)) [CD28-Fc EET I-II 13]” yielded an ELISA of 1.52 and a S/N of 27.2.

Turning to “AFDCLGQCGRCDFHKLQCVYQDWAHYVYCNSSCTR (also: bicyclic or more (positions not given here)) [PCSK9dCRD AVR9 44]”, in the assay on PCSK9ΔCRD (PCSK9dCRD), the S/N stood at 27.7 and the ELISA came to 2.19.

Take “AFDCLGQCGRCDFHKLQCVYRSWAHFQYCNSSCTR (also: bicyclic or more (positions not given here)) [PCSK9dCRD AVR9 11]”: in the assay with PCSK9ΔCRD (PCSK9dCRD), the S/N is given as 18.5 and the ELISA was 2.52.

For “GCMMYWDECKQDSDCLAGCVCLIWNRCG (disulfide (positions not given here)) [CD28-Fc EET I-II 4]”, in the assay with CD28-Fc, the ELISA worked out at 1.85 and the S/N was determined as 34.2.

In the assay with CD28-Fc, “GCMWDWDACKQDSDCLAGCVCSIWGRCG (disulfide (positions not given here)) [CD28-Fc EET I-II 2]” had an ELISA of 1.29 and a S/N of 10.9.

In the assay with CD28-Fc, “GCFWKRVHLCKQDSDCLAGCVCGWEASCG (disulfide (positions not given here)) [CD28-Fc EET I-II 15]” returned an ELISA of 1.64 and a S/N of 31.6.

Take “AFDCLGQCGRCDFHKLQCVGKFRSFQDYQYCNSSCTR (also: bicyclic or more (positions not given here)) [PCSK9dCRD AVR9 18]”: in the assay on PCSK9ΔCRD (PCSK9dCRD), the S/N was determined as 28.6 and the ELISA was 2.52.

Consider “AFDCLGQCGRCDFHKLQCVWQTWQHYQYCNSSCTR (also: bicyclic or more (positions not given here)) [PCSK9dCRD AVR9 69]”, for which, in the assay with PCSK9ΔCRD (PCSK9dCRD), the S/N turned out to be 23.5 and the ELISA is given as 2.51.

For the sequence “GCDEYWYECKQDSDCLAGCVCLIWGHCG (disulfide (positions not given here)) [CD28-Fc EET I-II 7]”, in the assay with CD28-Fc, the ELISA was found to be 1.32 and the S/N stood at 20.3.

For “GCQSHYSHQGCKQDSDCLAGYCG [Her3-Fc EET I-II 11]”, at Her3-Fc, the S/N was found to be 26.1 and the ELISA is listed as 1.65.

Turning to “AFDCLGQCGRCDFHKLQCVFRSWQHYMYCNSSCTR (also: bicyclic or more (positions not given here)) [PCSK9dCRD AVR9 39]”, in the assay on PCSK9ΔCRD (PCSK9dCRD), the S/N is recorded as 9.1 and the ELISA came to 2.46.

On to “GCMNWGTFCKQDSDCLAGCVCALFGVCG (also: bicyclic or more (positions not given here)) [Her3-Fc EET I-II 66]”, for which, at Her3-Fc, the S/N came out at 27.8 and the ELISA amounted to 1.59.

As to “AFDCLGQCGRCDFHKLQCVYQSWDHYQYCNSSCTR (also: bicyclic or more (positions not given here)) [PCSK9dCRD AVR9 14]”, in the assay on PCSK9ΔCRD (PCSK9dCRD), the S/N was 30.5 and the ELISA came out at 2.41.

As to “AFDCLGQCGRCDFHKLQCVWQTWSAYLYCNSSCTR (also: bicyclic or more (positions not given here)) [PCSK9dCRD AVR9 80]”, in the assay on PCSK9ΔCRD (PCSK9dCRD), the S/N was 2.9 and the ELISA came out at 2.10.

On to “AFDCLGQCVPYVLSPYCNSSCTR [Her3-Fc AVR9 6]”, for which, at Her3-Fc, the S/N came to 24.2 and the ELISA amounted to 1.56.

“GCWSSEKGLACKQDSDCLAGCVCDQTGSCG (also: bicyclic or more (positions not given here)) [Her3-Fc EET I-II 52]”: at Her3-Fc, the S/N came to 23.0 and the ELISA came to 1.65.

For the sequence “GCDLDLDWIWHECKQDSDCLAGCVCHQGNFCG (also: bicyclic or more (positions not given here)) [Her3-Fc EET I-II 9]”, at Her3-Fc, the S/N is reported as 25.7 and the ELISA is given as 1.44.

Consider “GPTQSVGGVCGGIGYSGPTVCASGTTCQVLSPKTSICLPGAS (also: bicyclic or more (positions not given here)) [PCSK9dCRD CBD 40]”, for which, in the assay with PCSK9ΔCRD (PCSK9dCRD), the S/N stood at 27.5 and the ELISA came to 2.39.

Take “AFDCLGQCGRCDFHKLQCVWTSWGDYIKYGAYCNSSCTR (also: bicyclic or more (positions not given here)) [PCSK9dCRD AVR9 94]”: in the assay with PCSK9ΔCRD (PCSK9dCRD), the S/N was determined as 10.9 and the ELISA stood at 2.09.

As to “GCMYHWEACKQDSDCLAGCICHIWIPCG (disulfide (positions not given here)) [CD28-Fc EET I-II 8]”, in the assay with CD28-Fc, the ELISA is given as 1.07 and the S/N stood at 16.4.

In the assay with CD28-Fc, “GCWEKRKMCKQDSDCLAGCVCGWEISCG (disulfide (positions not given here)) [CD28-Fc EET I-II 14]” showed an ELISA of 1.35 and a S/N of 22.9.

“GCVWNWVECKQDSDCLAGCVCYIWGRCG (disulfide (positions not given here)) [CD28-Fc EET I-II 1]”: in the assay on CD28-Fc, the ELISA is 1.59 and the S/N is reported as 15.4.

Turning to “AFDCLGQCGRCDFHKLQCVSSNRNTPYCNSSCTR (disulfide (positions not given here)) [AVR9 5]”, in the assay with Notch2NRR, the S/N is on record as 45.8 and the ELISA was found to be 3.31.

With “AFDCLGQCGRCDFHKLQCVYKTWQDYQYCNSSCTR (also: bicyclic or more (positions not given here)) [PCSK9dCRD AVR9 53]”, in the assay on PCSK9ΔCRD (PCSK9dCRD), the S/N came out at 36.1 and the ELISA is given as 2.49.

As for “AFDCLGQCGRCDFHKLQCVYTSWESYQYCNSSCTR (also: bicyclic or more (positions not given here)) [PCSK9dCRD AVR9 16]”, in the assay with PCSK9ΔCRD (PCSK9dCRD), the S/N was 19.6 and the ELISA amounted to 1.80.

“AFDCLGQCGRCDFHKLQCVYTSWQHYQYCNSSCTR (also: bicyclic or more (positions not given here)) [PCSK9dCRD AVR9 58]”: in the assay on PCSK9ΔCRD (PCSK9dCRD), the S/N was determined as 35.3 and the ELISA is recorded as 2.67.

In the assay with CD28-Fc, “GCFENWATCKQDSDCLAGCVCKIWKRCG (disulfide (positions not given here)) [CD28-Fc EET I-II 5]” returned an ELISA of 1.34 and a S/N of 19.6.

In the assay with CD28-Fc, “GCHYNWDQCKQDSDCLAGCVCLIWYRCD (disulfide (positions not given here)) [CD28-Fc EET I-II 12]” displayed an ELISA of 1.06 and a S/N of 20.1.

With “GPTQSVGGNCGGIGYSGPTVCASGTTCQVLSPNFSICLPGAS (also: bicyclic or more (positions not given here)) [PCSK9dCRD CBD 49]”, in the assay with PCSK9ΔCRD (PCSK9dCRD), the S/N came to 37.1 and the ELISA stood at 2.38.

On to “AFDCLGQCGRCDFHKLQCVWSNRHSPYCNSSCTR (disulfide (positions not given here)) [AVR9 4]”, for which, in the assay on Notch2NRR, the S/N is reported as 39.3 and the ELISA amounted to 3.31.

Take “GPTQSHYGQCGGAGYWGRWICSGTTCQPLPQSKSQCLPGAS (disulfide (positions not given here)) [CBD 1]”: in the assay with Notch2NRR, the S/N is given as 38.2 and the ELISA turned out to be 3.79.

Take “AFDCLGQCGRCDFHKLQCVYKDWGHYLYCNSSCTR (also: bicyclic or more (positions not given here)) [PCSK9dCRD AVR9 34]”: in the assay on PCSK9ΔCRD (PCSK9dCRD), the S/N was 24.0 and the ELISA is listed as 1.80.

Regarding “GPTQSHYGQCGGQGYWGMRHCSGTTCQWGAKGPSQCLPGAS (disulfide (positions not given here)) [CBD 4]”, in the assay with Notch2NRR, the S/N was 33.1 and the ELISA is 3.68.

In the assay with CD28-Fc, “GCTQDWKTCKQDSDCLAGCVCVIWGRCG (disulfide (positions not given here)) [CD28-Fc EET I-II 6]” gave an ELISA of 1.44 and a S/N of 21.2.

Turning to “AFDCLGQCGRCDFHKLQCVYSSWAHYQYCNSSCTR (also: bicyclic or more (positions not given here)) [PCSK9dCRD AVR9 57]”, in the assay on PCSK9ΔCRD (PCSK9dCRD), the S/N is recorded as 33.9 and the ELISA turned out to be 2.57.

With “GCYTFWHKCKQDSDCLAGCVCLIWGRCG (disulfide (positions not given here)) [CD28-Fc EET I-II 11]”, in the assay with CD28-Fc, the ELISA is 1.50 and the S/N is on record as 19.0.

Take “AFDCLGQCGRCDFHKLQCVNIEYYRDWDHYQYCNSSCTR (also: bicyclic or more (positions not given here)) [PCSK9dCRD AVR9 82]”: in the assay with PCSK9ΔCRD (PCSK9dCRD), the S/N is recorded as 27.6 and the ELISA was 2.13.

In the case of “AFDCLGQCGRCDFHKLQCVYESYAHYQYCNSSCTR (also: bicyclic or more (positions not given here)) [PCSK9dCRD AVR9 54]”, in the assay with PCSK9ΔCRD (PCSK9dCRD), the S/N is on record as 23.7 and the ELISA was determined as 1.59.

As for “AFDCLGQCGRCDFHKLQCVPYSWTYKQYCNSSCTR (disulfide (positions not given here)) [AVR9 9]”, in the assay on Notch2NRR, the S/N stood at 35.7 and the ELISA is given as 2.57.
